Results from patent publication US20200138890A1, “PHARMACEUTICAL COMPOSITION FOR PREVENTION AND TREATMENT OF PROSTATIC HYPERPLASIA AND ERECTILE DYSFUNCTION CAUSED BY ANDROPAUSE COMPRISING EXTRACT OF LESPEDEZA CUNEATA AND TRIGONELLAE SEMEN” (DUHANBIO CO., LTD., priority 2017, published 2020).
Counter-ions that a name gives are not always drawn.

Legend:
[1] = tested on: male SD rats with prostate gland hypertrophy induced by testosterone; experiment: Inhibition of prostatic hyperplasia in vivo (testosterone-induced prostate gland hypertrophy, prostate weight); settings: testosterone 3 mg/kg/day s.c.; Examples 50 mg/kg oral, finasteride 2 mg/kg oral, 3 weeks
From the text: At this time, finasteride was used as the positive control group.
On the day of the last administration, the animals were weighed and then sacrificed, and blood was collected and the prostate glands were excised.

[2] = tested on: male SPF New Zealand albino rabbits; experiment: Erectile promoting effect in vivo (erection start time and duration); design: species or system rabbit; settings: oral, Examples 50 mg/kg, sildenafil citrate 20 mg/kg
Experimental: Based on the above results, the effects on erectile promotion of the compositions of Examples 6 to 9 of the present invention in vivo were measured. At this time, sildenafil citrate was used as a positive control group. Specifically, as experimental animals, six male SPF New Zealand albino rabbits (about 3.5 to 4.0 kg body weight, Samtako, Korea) per test group were used, and these rabbits were placed in cages and fed a constant amount of conventional solid feed for rabbits and water under the same condition for 4 days or more. The rabbit was fasted for 48 hours or more and then used for the test. When fasting, the rabbits were allowed to drink water freely. To the rabbit prepared as described above, the compositions of Examples 6 to 9 of the present invention were orally administered at a dose of 50 mg/kg per animal. Meanwhile, sildenafil citrate, a positive control group, was orally administered at a dose of 20 mg/kg. After administration as described above, the erection start time and duration were measured.

[3] = listed as positive control group

Structure (SMILES)	Prostate gland weight [1]	Prostate gland/body weight (%) [1]	Erection maintenance time ([2]; listed as Control group)	Erection start time ([2]; listed as Control group)	Maximum Erection time ([2]; listed as Control group)	Erection maintenance time [2, 3]	Erection start time [2, 3]	Maximum Erection time [2, 3]
CC(C)(C)NC(=O)[C@H]1CC[C@H]2[C@@H]3CC[C@H]4NC(=O)C=C[C@]4(C)[C@H]3CC[C@]12C [Finasteride, finasteride]	0.92 ± 0.11 g	0.24 ± 0.02%						
CCCc1nn(C)c2c(=O)[nH]c(-c3cc(S(=O)(=O)N4CCN(C)CC4)ccc3OCC)nc12 [sildenafil citrate]			120 ± 5 min	6.2 ± 1.1 min	19 ± 1 min	120 min	about 6 Min.	about 19 Min.
